Drawing on ChEMBL document CHEMBL5465560, “Selectivity Literature for EUbOPEN Chemogenomic Library” (2024), this text covers % of control, IC50 and EC50 for five compounds.

Assay [1] deals with Serine/threonine-protein kinase 10 (Homo sapiens) (UniProt O94804). The experiment in a line: Selectivity interaction (KinomeScan (DiscoverX)) EUB0000695a STK10. The settings on record: at 100 nM.
Assay [2] has as its target Mitogen-activated protein kinase 8 (Homo sapiens, UniProt P45983). Nature of the assay: Selectivity interaction (Enyzmatic assay) EUB0000601a MAPK8.
Assay [3] deals with Tyrosine-protein kinase JAK2 (Homo sapiens, UniProt O60674). Nature of the assay: Selectivity interaction (NanoBRET assay (HEK293T cells)) EUB0001559a JAK2. In kind it is cell-based, HEK-293T.
Sequence of Tyrosine-protein kinase JAK2 (O60674 whole entry): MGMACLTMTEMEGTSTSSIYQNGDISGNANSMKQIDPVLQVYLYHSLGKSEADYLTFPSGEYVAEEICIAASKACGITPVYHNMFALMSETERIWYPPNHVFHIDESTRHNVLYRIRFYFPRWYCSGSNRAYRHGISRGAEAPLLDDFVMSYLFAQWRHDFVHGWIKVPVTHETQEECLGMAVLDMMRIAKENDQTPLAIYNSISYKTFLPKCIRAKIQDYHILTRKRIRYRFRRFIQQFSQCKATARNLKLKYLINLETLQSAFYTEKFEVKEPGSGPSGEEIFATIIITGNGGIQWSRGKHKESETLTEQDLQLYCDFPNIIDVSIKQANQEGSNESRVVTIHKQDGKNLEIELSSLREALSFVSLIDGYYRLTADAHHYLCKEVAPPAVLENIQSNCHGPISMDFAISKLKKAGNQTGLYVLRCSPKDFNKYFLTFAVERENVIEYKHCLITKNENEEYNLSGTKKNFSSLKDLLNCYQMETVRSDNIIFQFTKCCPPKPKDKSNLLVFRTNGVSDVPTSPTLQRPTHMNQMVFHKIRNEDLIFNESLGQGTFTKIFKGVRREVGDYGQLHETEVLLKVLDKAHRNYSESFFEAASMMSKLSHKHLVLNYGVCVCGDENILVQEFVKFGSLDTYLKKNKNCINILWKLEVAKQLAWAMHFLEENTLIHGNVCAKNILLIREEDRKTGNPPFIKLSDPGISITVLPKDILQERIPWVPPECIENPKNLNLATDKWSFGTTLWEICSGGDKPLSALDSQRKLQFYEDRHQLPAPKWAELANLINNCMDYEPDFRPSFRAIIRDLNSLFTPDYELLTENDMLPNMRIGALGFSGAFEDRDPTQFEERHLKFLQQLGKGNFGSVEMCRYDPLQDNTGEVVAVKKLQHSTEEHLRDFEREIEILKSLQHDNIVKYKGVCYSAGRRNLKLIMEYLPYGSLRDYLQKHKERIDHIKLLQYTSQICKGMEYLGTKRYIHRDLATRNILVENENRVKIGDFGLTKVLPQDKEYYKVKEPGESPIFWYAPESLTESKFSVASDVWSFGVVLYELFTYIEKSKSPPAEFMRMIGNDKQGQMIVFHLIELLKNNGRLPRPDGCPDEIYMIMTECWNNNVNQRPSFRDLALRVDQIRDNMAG
For assay [4], the target named is T1, Dual specificity protein kinase TTK (Homo sapiens) (UniProt P33981).
T1 sequence (whole entry): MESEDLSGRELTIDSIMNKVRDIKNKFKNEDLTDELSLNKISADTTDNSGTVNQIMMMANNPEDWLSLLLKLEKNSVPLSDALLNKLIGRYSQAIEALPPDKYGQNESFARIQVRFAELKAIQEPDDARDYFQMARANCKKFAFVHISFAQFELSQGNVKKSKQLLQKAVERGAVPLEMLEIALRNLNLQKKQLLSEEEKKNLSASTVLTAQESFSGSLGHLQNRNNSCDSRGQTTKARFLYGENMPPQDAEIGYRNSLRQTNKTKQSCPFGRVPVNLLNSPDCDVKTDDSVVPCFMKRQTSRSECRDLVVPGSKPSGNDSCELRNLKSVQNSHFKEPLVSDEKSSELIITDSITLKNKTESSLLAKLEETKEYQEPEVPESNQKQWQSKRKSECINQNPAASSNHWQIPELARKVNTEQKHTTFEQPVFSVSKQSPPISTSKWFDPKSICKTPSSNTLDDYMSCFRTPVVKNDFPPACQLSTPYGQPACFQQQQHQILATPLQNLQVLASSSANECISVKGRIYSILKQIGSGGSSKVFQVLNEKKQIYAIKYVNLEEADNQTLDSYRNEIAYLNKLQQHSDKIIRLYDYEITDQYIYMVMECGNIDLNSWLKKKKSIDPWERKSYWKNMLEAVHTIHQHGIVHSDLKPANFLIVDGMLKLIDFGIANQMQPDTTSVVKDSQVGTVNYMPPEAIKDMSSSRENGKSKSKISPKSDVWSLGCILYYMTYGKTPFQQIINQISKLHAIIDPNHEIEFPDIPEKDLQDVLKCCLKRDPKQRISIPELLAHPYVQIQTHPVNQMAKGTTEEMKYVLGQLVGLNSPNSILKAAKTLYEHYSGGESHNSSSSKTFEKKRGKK
The experiment in a line: Selectivity interaction (KinomeScan (DiscoverX)) EUB0000045b TTK.

Assay [5] addresses T2, Serine/threonine-protein kinase DCLK1 (Homo sapiens) (UniProt O15075).
T2 sequence (whole entry): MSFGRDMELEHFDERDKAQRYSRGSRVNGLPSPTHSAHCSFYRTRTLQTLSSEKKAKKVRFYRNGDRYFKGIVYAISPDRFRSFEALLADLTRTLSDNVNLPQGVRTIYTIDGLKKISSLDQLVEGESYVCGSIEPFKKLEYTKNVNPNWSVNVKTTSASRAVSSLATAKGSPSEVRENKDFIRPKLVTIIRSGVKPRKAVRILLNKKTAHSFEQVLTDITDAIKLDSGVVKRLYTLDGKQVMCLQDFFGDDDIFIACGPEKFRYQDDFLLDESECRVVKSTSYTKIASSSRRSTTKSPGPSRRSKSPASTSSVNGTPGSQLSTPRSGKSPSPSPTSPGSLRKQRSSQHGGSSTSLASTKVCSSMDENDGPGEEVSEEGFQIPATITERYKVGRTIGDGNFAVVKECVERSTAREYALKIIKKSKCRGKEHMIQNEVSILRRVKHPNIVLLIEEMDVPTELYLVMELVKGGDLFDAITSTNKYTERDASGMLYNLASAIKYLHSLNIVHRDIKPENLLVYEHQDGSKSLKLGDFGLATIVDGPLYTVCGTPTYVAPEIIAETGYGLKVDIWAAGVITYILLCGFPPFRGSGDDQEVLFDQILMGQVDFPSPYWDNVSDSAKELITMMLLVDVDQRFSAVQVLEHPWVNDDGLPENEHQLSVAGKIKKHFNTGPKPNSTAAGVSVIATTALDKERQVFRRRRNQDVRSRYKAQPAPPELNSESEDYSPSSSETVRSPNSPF
The experiment in a line: Selectivity interaction (KinomeScan (DiscoverX)) EUB0000092b DCLK1. The settings on record: at 10 µM.

The target of assay [6] is T3, NUAK family SNF1-like kinase 2 (Homo sapiens) (UniProt Q9H093).
T3 sequence (whole entry): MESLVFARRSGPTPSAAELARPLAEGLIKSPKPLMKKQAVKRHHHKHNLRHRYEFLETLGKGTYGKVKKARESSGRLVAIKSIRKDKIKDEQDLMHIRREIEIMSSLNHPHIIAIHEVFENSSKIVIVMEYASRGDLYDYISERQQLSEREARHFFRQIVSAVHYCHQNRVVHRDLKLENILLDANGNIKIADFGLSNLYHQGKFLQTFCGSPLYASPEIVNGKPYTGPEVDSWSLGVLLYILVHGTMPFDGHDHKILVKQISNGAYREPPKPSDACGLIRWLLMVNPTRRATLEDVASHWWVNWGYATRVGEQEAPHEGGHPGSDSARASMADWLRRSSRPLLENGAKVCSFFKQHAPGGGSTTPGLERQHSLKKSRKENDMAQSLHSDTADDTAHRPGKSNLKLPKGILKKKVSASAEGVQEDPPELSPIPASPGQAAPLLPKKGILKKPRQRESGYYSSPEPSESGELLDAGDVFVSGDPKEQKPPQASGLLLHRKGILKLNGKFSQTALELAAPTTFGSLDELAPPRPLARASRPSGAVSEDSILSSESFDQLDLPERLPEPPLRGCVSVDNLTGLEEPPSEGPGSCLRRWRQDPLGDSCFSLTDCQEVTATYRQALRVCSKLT
Nature of the assay: Selectivity interaction (KinomeScan (DiscoverX)) EUB0000092b NUAK2. Conditions: at 10 µM.

Sequence of Mitogen-activated protein kinase 8 (P45983 whole entry): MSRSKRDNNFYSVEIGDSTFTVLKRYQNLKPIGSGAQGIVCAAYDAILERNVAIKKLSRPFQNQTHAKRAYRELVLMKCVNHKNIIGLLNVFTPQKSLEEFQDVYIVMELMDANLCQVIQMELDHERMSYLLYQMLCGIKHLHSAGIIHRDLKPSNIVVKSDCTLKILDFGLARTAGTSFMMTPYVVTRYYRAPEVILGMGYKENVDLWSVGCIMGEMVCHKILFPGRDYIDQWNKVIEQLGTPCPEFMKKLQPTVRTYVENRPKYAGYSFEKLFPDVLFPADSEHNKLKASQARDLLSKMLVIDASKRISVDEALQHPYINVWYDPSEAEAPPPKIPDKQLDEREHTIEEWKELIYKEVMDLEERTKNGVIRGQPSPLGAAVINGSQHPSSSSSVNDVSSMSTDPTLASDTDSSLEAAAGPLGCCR
Sequence of Serine/threonine-protein kinase 10 (Homo sapiens) (O94804 whole entry, looked up): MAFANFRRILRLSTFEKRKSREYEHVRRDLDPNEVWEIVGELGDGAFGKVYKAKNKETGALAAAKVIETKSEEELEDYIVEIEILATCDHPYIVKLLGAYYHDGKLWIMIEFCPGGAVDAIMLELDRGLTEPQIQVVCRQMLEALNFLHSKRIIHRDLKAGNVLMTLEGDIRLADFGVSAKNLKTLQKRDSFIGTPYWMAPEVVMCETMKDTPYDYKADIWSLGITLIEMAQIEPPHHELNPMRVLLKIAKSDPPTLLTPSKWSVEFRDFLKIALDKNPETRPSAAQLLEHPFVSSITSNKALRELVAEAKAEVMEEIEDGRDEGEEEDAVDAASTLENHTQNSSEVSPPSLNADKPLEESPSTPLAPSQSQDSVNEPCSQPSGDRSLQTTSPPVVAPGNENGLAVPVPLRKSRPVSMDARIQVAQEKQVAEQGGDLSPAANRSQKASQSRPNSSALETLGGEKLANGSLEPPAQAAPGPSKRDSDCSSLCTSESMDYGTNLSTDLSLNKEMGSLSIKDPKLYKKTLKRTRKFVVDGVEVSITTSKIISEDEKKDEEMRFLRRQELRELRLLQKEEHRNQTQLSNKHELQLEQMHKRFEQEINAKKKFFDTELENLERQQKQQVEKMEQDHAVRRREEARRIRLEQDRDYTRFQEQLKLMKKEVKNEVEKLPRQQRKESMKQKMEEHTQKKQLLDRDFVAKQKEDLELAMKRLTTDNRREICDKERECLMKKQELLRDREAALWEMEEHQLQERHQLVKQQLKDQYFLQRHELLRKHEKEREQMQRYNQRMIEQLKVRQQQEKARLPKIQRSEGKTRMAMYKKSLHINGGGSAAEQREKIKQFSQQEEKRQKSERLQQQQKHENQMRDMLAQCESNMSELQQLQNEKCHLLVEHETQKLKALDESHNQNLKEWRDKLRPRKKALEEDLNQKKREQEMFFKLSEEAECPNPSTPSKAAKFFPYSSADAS

`Cc1cc(F)c(C(=O)Nc2cccc(-c3nncn3C(C)C)n2)cc1-n1cnc(C2CC2)c1` showed a % of control in assay [1] of 100%.

The IC50 is the concentration that gives 50% inhibition. Read a high IC50 as a need for much substance. Compound `CCc1cc(Nc2nccc(-c3c(-c4ccc(OC)c(C(=O)Nc5c(F)cccc5F)c4)nc4ccccn34)n2)c(OC)cc1N1CCC(N2CCN(S(C)(=O)=O)CC2)CC1` came in with an IC50 in assay [2] greater than 10 µM.

A word on the EC50: it is the concentration needed to bring the measured effect to its halfway point. Read a high EC50 as a need for much substance. The compound `CN(C(=O)c1cnn2cccnc12)c1cc2c(cc1N1CCOCC1)C(=O)N(C[C@@H](F)C(C)(C)O)C2` showed an EC50 in assay [3] greater than 50 µM.

On to `C=CC(=O)Nc1cc(-n2c(=O)ccc3cnc4ccc(-c5ccc(NS(C)(=O)=O)cc5)cc4c32)ccc1C`, for which the % of control in assay [4] (at 1 µM) was determined as 100%; in assay [4] (at 10 µM), 52%.

Regarding `CCC(=O)N1CCN(c2ccc(-n3c(=O)ccc4cnc5ccc(-c6cnc7ccccc7c6)cc5c43)cc2C(F)(F)F)CC1`, the % of control in assay [5] and in assay [6] was 100% each time.
